Experimental data from PubChem BioAssay AID248 (DTP/NCI, 2004).
Where “and” joins values, the source holds several entries; their conditions need not be identical. Equal entries are not always repeated. Toxic doses and inconclusive results are not listed. Cut-off read from the data, not from the text of the source: active = T/C of 150% or more; inactive = T/C below 125%.

Tested on: L1210 leukemia ip in BDF1 mice, survival T/C
Test: NCI In Vivo Anticancer Drug Screen. Data for tumor model L1210 Leukemia (intraperitoneal) in B6D2F1 (BDF1) mice
Conditions: endpoint: mean survival time, higher = longer survival
How it was run: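 Read-out is survival time, reported as the treated-group measurement over the vehicle-control measurement.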

[1] = dose: 400.0 mg/kg/injection, schedule: Q04DX003 (ip), vehicle: saline
[2] = dose: 100.0 mg/kg/injection, schedule: Q01DX001 (ip), vehicle: saline
[3] = dose: 200.0 mg/kg/injection, schedule: Q01DX001 (ip), vehicle: saline
[4] = dose: 400.0 mg/kg/injection, schedule: Q01DX001 (ip), vehicle: saline
[5] = dose: 100.0 mg/kg/injection, schedule: Q04DX003 (ip), vehicle: Klucel (hydroxypropylcellulose) (HPC)
[6] = dose: 200.0 mg/kg/injection, schedule: Q04DX003 (ip), vehicle: Klucel (hydroxypropylcellulose) (HPC)
[7] = dose: 400.0 mg/kg/injection, schedule: Q04DX003 (ip), vehicle: Klucel (hydroxypropylcellulose) (HPC)
[8] = dose: 100.0 mg/kg/injection, schedule: Q04DX002 (ip), vehicle: Klucel (hydroxypropylcellulose) (HPC)
[9] = dose: 200.0 mg/kg/injection, schedule: Q04DX002 (ip), vehicle: Klucel (hydroxypropylcellulose) (HPC)
[10] = dose: 400.0 mg/kg/injection, schedule: Q04DX002 (ip), vehicle: Klucel (hydroxypropylcellulose) (HPC)
[11] = dose: 100.0 mg/kg/injection, schedule: Q04DX003 (ip), vehicle: saline with Tween-80
[12] = dose: 200.0 mg/kg/injection, schedule: Q04DX003 (ip), vehicle: saline with Tween-80
[13] = dose: 400.0 mg/kg/injection, schedule: Q04DX003 (ip), vehicle: saline with Tween-80
[14] = dose: 100.0 mg/kg/injection, schedule: Q04DX002 (ip), vehicle: saline with Tween-80
[15] = dose: 200.0 mg/kg/injection, schedule: Q04DX002 (ip), vehicle: saline with Tween-80
[16] = dose: 400.0 mg/kg/injection, schedule: Q04DX002 (ip), vehicle: saline with Tween-80

Measured: T/C

O=C(NCCCl)NC1CC1c1ccccc1 (configuration not stated)
inactive: dose: 75.0 mg/kg/injection, schedule: Q01DX001 (ip), vehicle: other 97 % of control | dose: 150.0 mg/kg/injection, schedule: Q01DX001 (ip), vehicle: other 103 % of control

CC(=O)Nc1cc(C)c(Cl)cc1Cl
inactive: dose: 31.25 mg/kg/injection, schedule: Q01DX009 (ip), vehicle: saline 103 % of control | dose: 62.5 mg/kg/injection, schedule: Q01DX009 (ip), vehicle: saline 103 % of control | dose: 100.0 mg/kg/injection, schedule: Q04DX003 (ip), vehicle: saline 100 % of control | dose: 125.0 mg/kg/injection, schedule: Q01DX009 (ip), vehicle: saline 102 % of control | dose: 200.0 mg/kg/injection, schedule: Q04DX003 (ip), vehicle: saline 105 % of control | [1] 101 % of control

C/C(=C\CN1C(=O)CN(C)C1=O)CCC1OC1(C)C (configuration not stated)
inactive: [2] 115 % of control | dose: 100.0 mg/kg/injection, schedule: Q04DX003 (ip), vehicle: water 100 % of control | [3] 111 % of control | dose: 200.0 mg/kg/injection, schedule: Q04DX003 (ip), vehicle: water 98 % of control | [4] 114 % of control | dose: 400.0 mg/kg/injection, schedule: Q04DX003 (ip), vehicle: water 104 % of control

COc1cccc(C2N(Cc3ccccc3OC)CCCN2Cc2ccccc2OC)c1
inactive: dose: 50.0 mg/kg/injection, schedule: Q01DX001 (ip), vehicle: carboxymethylcellulose (CMC) 93 % of control | dose: 100.0 mg/kg/injection, schedule: Q01DX001 (ip), vehicle: carboxymethylcellulose (CMC) 102 % of control | dose: 200.0 mg/kg/injection, schedule: Q01DX001 (ip), vehicle: carboxymethylcellulose (CMC) 106 % of control | dose: 400.0 mg/kg/injection, schedule: Q01DX001 (ip), vehicle: carboxymethylcellulose (CMC) 102 % of control

COc1cc(C)ccc1-c1c(C(=O)O)cccc1[N+](=O)[O-]
inactive: [5] 93 % of control | [6] 95 % of control | [7] 90 % of control

CC(=O)OCC1OC2OC(c3ccccc3)=NC2C(OC(C)=O)C1OC(C)=O (configuration not stated)
inactive: dose: 22.5 mg/kg/injection, schedule: Q01DX001 (ip), vehicle: carboxymethylcellulose (CMC) 97 % of control | dose: 45.0 mg/kg/injection, schedule: Q01DX001 (ip), vehicle: carboxymethylcellulose (CMC) 103 % of control | dose: 90.0 mg/kg/injection, schedule: Q01DX001 (ip), vehicle: carboxymethylcellulose (CMC) 105 % of control | dose: 180.0 mg/kg/injection, schedule: Q01DX001 (ip), vehicle: carboxymethylcellulose (CMC) 97 % of control

Cc1cc(C)c(NC(=O)c2c(Br)c(Br)c(Br)c(Br)c2C(=O)O)c(C)c1
inactive: [8] 101 % of control | [9] 111 % of control | [10] 87 % of control

Oc1ccc(Cl)cc1/C=N/N1CCN(/N=C/c2cc(Cl)ccc2O)CC1
inactive: [2] 90 % of control | [3] 90 % of control | [4] 90 % of control

CNc1nc2ccccc2n1C1OC(CO)C(O)C1O (configuration not stated)
inactive: [2] 95 % of control | [3] 98 % of control | [4] 98 % of control

Cc1n[nH]c(C)c1Br
inactive: dose: 75.0 mg/kg/injection, schedule: Q01DX009 (ip), vehicle: saline with Tween-80 95 % of control | dose: 75.0 mg/kg/injection, schedule: Q04DX003 (ip), vehicle: saline with Tween-80 97 % of control | dose: 150.0 mg/kg/injection, schedule: Q01DX009 (ip), vehicle: saline with Tween-80 97 % of control | dose: 150.0 mg/kg/injection, schedule: Q04DX003 (ip), vehicle: saline with Tween-80 95 % of control | dose: 300.0 mg/kg/injection, schedule: Q01DX009 (ip), vehicle: saline with Tween-80 99 % of control | dose: 300.0 mg/kg/injection, schedule: Q04DX003 (ip), vehicle: saline with Tween-80 98 % of control

OCC1(Br)CCC(Br)(CO)CC1 (configuration not stated)
inactive: [8] 103 % of control | [11] 104 % of control | [9] 111 % of control | [12] 98 % of control | [10] 107 % of control | [13] 96 % of control

CC(C)N(C=O)c1ccc(C(=O)O)cc1
inactive: dose: 100.0 mg/kg/injection, schedule: Q01DX001 (ip), vehicle: Klucel (hydroxypropylcellulose) (HPC) 93 % of control | [5] 108 % of control | dose: 200.0 mg/kg/injection, schedule: Q01DX001 (ip), vehicle: Klucel (hydroxypropylcellulose) (HPC) 93 % of control | [6] 97 % of control | dose: 400.0 mg/kg/injection, schedule: Q01DX001 (ip), vehicle: Klucel (hydroxypropylcellulose) (HPC) 86 % of control | [7] 89 % of control

O=[N+]([O-])c1ccccc1C1ON1C1CCCCC1 (configuration not stated)
inactive: [2] 97 % of control | [3] 97 % of control | [4] 90 % of control

Nn1c(Cc2ccccc2)nnc1Cc1ccccc1
inactive: [14] 104 % of control | [15] 87 % of control | [16] 108 % of control

Cc1[nH]c(=S)[nH]c(=O)c1CCSC(=N)N
inactive: [2] 108 % of control | [3] 103 % of control

O=C1O/C(=C/c2ccccc2)C(O)=C1c1ccccc1
inactive: [14] 93 % of control | [15] 103 % of control

O=C(NC(=S)c1cccc2ccccc12)Nc1ccc(Cl)cc1
inactive: [14] 97 % of control | [15] 89 % of control | [16] 89 % of control

CC(=O)CC(=O)Nc1nc2ccccc2s1
inactive: [5] 92 % of control | [6] 103 % of control | [7] 97 % of control

CC(N)CCCO (configuration not stated)
inactive: dose: 5.0 mg/kg/injection, schedule: Q01DX001 (ip), vehicle: saline 103 % of control | dose: 10.0 mg/kg/injection, schedule: Q01DX001 (ip), vehicle: saline 97 % of control | dose: 20.0 mg/kg/injection, schedule: Q01DX001 (ip), vehicle: saline 103 % of control | dose: 40.0 mg/kg/injection, schedule: Q01DX001 (ip), vehicle: saline 101 % of control | dose: 80.0 mg/kg/injection, schedule: Q01DX001 (ip), vehicle: saline 103 % of control

O=C(Nc1ccccc1-c1ccc([N+](=O)[O-])cc1)c1ccc(-c2ccccc2)cc1
inactive: [1] 92 % of control

OC(Cc1nccc2ccccc12)(C(F)(F)F)C(F)(F)F
inactive: dose: 100.0 mg/kg/injection, schedule: Q01DX009 (ip), vehicle: saline with Tween-80 93 % of control | [11] 100 % of control | dose: 200.0 mg/kg/injection, schedule: Q01DX009 (ip), vehicle: saline with Tween-80 93 % of control | [12] 101 % of control | dose: 400.0 mg/kg/injection, schedule: Q01DX009 (ip), vehicle: saline with Tween-80 94 % of control | [13] 100 % of control

CCN(CCNC(=O)Nc1ccc(OC)cc1)c1ccccc1
inactive: dose: 100.0 mg/kg/injection, schedule: Q01DX009 (ip), vehicle: carboxymethylcellulose (CMC) 93 % of control and 100 % of control | [8] 103 % of control | dose: 100.0 mg/kg/injection, schedule: Q04DX002 (ip), vehicle: other 94 % of control and 98 % of control | dose: 100.0 mg/kg/injection, schedule: Q04DX003 (ip), vehicle: carboxymethylcellulose (CMC) 96 % of control | dose: 200.0 mg/kg/injection, schedule: Q01DX009 (ip), vehicle: carboxymethylcellulose (CMC) 93 % of control and 104 % of control | [9] 100 % of control | dose: 200.0 mg/kg/injection, schedule: Q04DX002 (ip), vehicle: other 91 % of control | dose: 200.0 mg/kg/injection, schedule: Q04DX003 (ip), vehicle: carboxymethylcellulose (CMC) 100 % of control | dose: 400.0 mg/kg/injection, schedule: Q01DX009 (ip), vehicle: carboxymethylcellulose (CMC) 96 % of control and 100 % of control | [10] 107 % of control | dose: 400.0 mg/kg/injection, schedule: Q04DX002 (ip), vehicle: other 102 % of control and 88 % of control | dose: 400.0 mg/kg/injection, schedule: Q04DX003 (ip), vehicle: carboxymethylcellulose (CMC) 96 % of control
